Results: BindingDB's records for doi:10.1016/j.bmcl.2008.10.124 (Schering-Plough Research Institute, 2009)

Target: Genome polyprotein (Hepatitis C virus genotype 1a (isolate H77), UniProt P27958)
Assay: Continuous Spectrophotometric Assay
Conditions: pH 6.5; 30 °C
Protocol: Proteolytic cleavage of the ester linkage between the Nva (L-norvaline) and the chromophore (PAP) was monitored for change in absorbance at 370 nm. Initial velocities were determined using linear regression and kinetic constants were obtained by fitting the data to the Michaelis-Menten equation.

Sequence of Genome polyprotein (P27958 1027-1657 limits assumed): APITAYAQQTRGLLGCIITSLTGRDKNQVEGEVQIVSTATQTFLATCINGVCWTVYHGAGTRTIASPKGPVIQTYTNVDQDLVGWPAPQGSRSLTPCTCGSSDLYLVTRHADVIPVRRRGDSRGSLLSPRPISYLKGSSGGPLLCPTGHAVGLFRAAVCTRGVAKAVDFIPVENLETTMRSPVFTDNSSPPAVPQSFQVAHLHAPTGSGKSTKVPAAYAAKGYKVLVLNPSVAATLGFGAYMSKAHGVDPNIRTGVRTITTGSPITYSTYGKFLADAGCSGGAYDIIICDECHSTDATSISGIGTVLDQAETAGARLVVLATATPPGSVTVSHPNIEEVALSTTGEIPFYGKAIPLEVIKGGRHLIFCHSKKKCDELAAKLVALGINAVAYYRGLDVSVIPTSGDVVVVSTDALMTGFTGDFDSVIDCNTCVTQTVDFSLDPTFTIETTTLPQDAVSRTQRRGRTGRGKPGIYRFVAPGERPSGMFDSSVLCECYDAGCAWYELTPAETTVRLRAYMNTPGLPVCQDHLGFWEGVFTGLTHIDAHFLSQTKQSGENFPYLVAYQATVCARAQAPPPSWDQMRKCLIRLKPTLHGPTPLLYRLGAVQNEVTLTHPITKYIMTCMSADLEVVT

Structure (SMILES) | Ki
CC[C@H](NC(=O)[C@@H]1[C@@H]2[C@H](CN1C(=O)[C@@H](NC(=O)N[C@H](CN(C)S(C)(=O)=O)C(C)(C)C)C(C)(C)C)C2(C)C)B1O[C@@H]2CC3CC(C3(C)C)[C@]2(C)O1 (stereo partly drawn) [(1R,2S,5S)-3-[(2S)-2-({[(2S)-1-[methane(methyl)sulfonamido]-3,3-dimethylbutan-2-yl]carbamoyl}amino)-3,3-dimethylbutanoyl]-6,6-dimethyl-N-[(1R)-1-[(2S,6R)-2,9,9-trimethyl-3,5-dioxa-4-boratricyclo[6.1.1.0^{2,6}]decan-4-yl]propyl]-3-azabicyclo[3.1.0]hexane-2-carboxamide] | 0.034 µM
CC(C)(C)NC(=O)N[C@H](C(=O)N1C[C@H]2[C@@H](C1C(=O)N[C@@H](CC1CCC1)B(O)O)C2(C)C)C(C)(C)C (stereo partly drawn) [(1R,5S)-3-[(2S)-2-[(tert-butylcarbamoyl)amino]-3,3-dimethylbutanoyl]-N-[(1R)-2-cyclobutyl-1-(dihydroxyboranyl)ethyl]-6,6-dimethyl-3-azabicyclo[3.1.0]hexane-2-carboxamide] | 0.01 µM
CC(C)(C)NC(=O)N[C@H](C(=O)N1C[C@H]2[C@@H](C1C(=O)N[C@@H](CC1CCC1)B1O[C@@H]3CC4CC(C4(C)C)[C@]3(C)O1)C2(C)C)C(C)(C)C (stereo partly drawn) [(1R,5S)-3-[(2S)-2-[(tert-butylcarbamoyl)amino]-3,3-dimethylbutanoyl]-N-[(1R)-2-cyclobutyl-1-[(2S,6R)-2,9,9-trimethyl-3,5-dioxa-4-boratricyclo[6.1.1.0^{2,6}]decan-4-yl]ethyl]-6,6-dimethyl-3-azabicyclo[3.1.0]hexane-2-carboxamide] | 0.01 µM
CN(C[C@@H](NC(=O)N[C@H](C(=O)N1C[C@H]2[C@@H]([C@H]1C(=O)N[C@@H](CC1CCC1)B1O[C@@H]3CC4CC(C4(C)C)[C@]3(C)O1)C2(C)C)C(C)(C)C)C(C)(C)C)S(C)(=O)=O (stereo partly drawn) [(1R,2S,5S)-N-[(1R)-2-cyclobutyl-1-[(2S,6R)-2,9,9-trimethyl-3,5-dioxa-4-boratricyclo[6.1.1.0^{2,6}]decan-4-yl]ethyl]-3-[(2S)-2-({[(2S)-1-[methane(methyl)sulfonamido]-3,3-dimethylbutan-2-yl]carbamoyl}amino)-3,3-dimethylbutanoyl]-6,6-dimethyl-3-azabicyclo[3.1.0]hexane-2-carboxamide] | 0.0005 µM

Now from value to molecule:

Ki | Structure (SMILES)
0.5 µM | CC[C@H](NC(=O)[C@@H]1[C@@H]2[C@H](CN1C(=O)[C@@H](NC(=O)NC(C)(C)C)C(C)(C)C)C2(C)C)B1O[C@@H]2CC3CC(C3(C)C)[C@]2(C)O1 (stereo partly drawn) [(1R,2S,5S)-3-[(2S)-2-[(tert-butylcarbamoyl)amino]-3,3-dimethylbutanoyl]-6,6-dimethyl-N-[(1R)-1-[(2S,6R)-2,9,9-trimethyl-3,5-dioxa-4-boratricyclo[6.1.1.0^{2,6}]decan-4-yl]propyl]-3-azabicyclo[3.1.0]hexane-2-carboxamide]
0.38 µM | CC[C@H](NC(=O)C1[C@@H]2[C@H](CN1C(=O)[C@@H](NC(=O)NC(C)(C)C)C(C)(C)C)C2(C)C)B1O[C@@H]2CC3CC(C3(C)C)[C@]2(C)O1 (stereo partly drawn) [(1R,5S)-3-[(2S)-2-[(tert-butylcarbamoyl)amino]-3,3-dimethylbutanoyl]-6,6-dimethyl-N-[(1R)-1-[(2S,6R)-2,9,9-trimethyl-3,5-dioxa-4-boratricyclo[6.1.1.0^{2,6}]decan-4-yl]propyl]-3-azabicyclo[3.1.0]hexane-2-carboxamide]
